Key:
[1] = NOVARTIS: Cytotoxicity against human hepatocellular carcinoma cell line (Huh7); type: toxicity, cell-based, Huh-7; conditions: Huh7 cells (hepatocellular carcinoma cell line)
Plasmodium falciparum [2] = test: NOVARTIS: Inhibition of Plasmodium falciparum W2 (drug-resistant) proliferation in erythrocyte-based infection assay; type: functional, organism-based; conditions: Plasmodium falciparum, W2; read-out: EC50
Plasmodium falciparum [3] = test: NOVARTIS: Inhibition of Plasmodium falciparum 3D7 (drug-susceptible) proliferation in erythrocyte-based infection assay; type: functional, organism-based; conditions: Plasmodium falciparum, 3D7

Row | Compound | CC50 [1] [nM] | EC50 (Plasmodium falciparum [2]) [nM] | EC50 (Plasmodium falciparum [3]) [nM]
1 | CC1CCC2C(C)C(O)OC3OC4(C)CCC1C32OO4 (configuration not stated) | > 10000 | 3.31 | 7.05
2 | COC(=O)c1cnn(-c2ccccc2)c1C=NOC(=O)c1ccccc1 | > 100000 | 2380 | > 5290
3 | CCOC(=O)c1ccc2nc(-c3ccccc3)cc(O)c2c1 | > 100000 | 493 | 549
4 | Cn1c(SCCCCNC(=O)c2cc([N+](=O)[O-])cc([N+](=O)[O-])c2)nc(-c2ccccc2)c1-c1ccccc1 | > 8570 | 33.7 | 1410
5 | C=C[C@H]1CN2CC[C@H]1C[C@H]2[C@H](OC(C)=O)c1ccnc2ccccc12 | > 10000 | 590 | 1460
6 | Cc1cc2ncn(N=Cc3cccnc3)c2cc1C | > 10000 | > 1250 | > 1020
7 | Cn1nc(C(=O)N2CCCCCC2)c2c1CCC(NCC(C)(C)N1CCOCC1)C2 (configuration not stated) | > 9560 | 5.52 | 22.5
8 | CCOC(=O)C1=C(C)NC2=C(C(=O)C(C(=O)OCC)C(c3ccccc3OC)C2)C1c1ccc([N+](=O)[O-])cc1 (configuration not stated) | > 100000 | 102 | 114
9 | CCN(CC)c1nc(S)nc(NC(C)(C)C)n1 | > 100000 | > 8810 | > 12500
10 | O=C1NCCN1C(=O)C(c1ccccc1)c1ccccc1 | > 10000 | > 746 | > 1540
11 | CNC1=C(N(Cc2ccc(Cl)c(Cl)c2)C(C)=O)C(=O)c2ccccc2C1=O | 126 | 1.26 | 1.23
12 | Cc1ccc2nc(C)cc(NCCN(C)C)c2c1 | 59100 | 709 | 360
13 | C=CC1CC23CC(C(OC(=O)CCC(=O)O)c4ccnc5ccc(OC)cc45)N2CCC13 (configuration not stated) | 45700 | 77.5 | 14
14 | COc1ccc(CCN(C(=S)Nc2ccccc2)C2CC(=O)N(c3ccc(F)cc3)C2=O)cc1OC (configuration not stated) | > 1910 | 1560 | > 1740
15 | Cc1ccc(O)c(NC(=O)c2cnn3c(C(F)(F)F)cc(-c4ccccc4)nc23)c1 | > 100000 | 472 | 1820
16 | CC(C)(C)OC(=O)N1CCC(c2c(C(=O)Nc3cccc(C(F)(F)F)c3)cnn2-c2ccc(F)cc2F)CC1 | > 100000 | 990 | 1270
17 | O=C(Cc1cccnc1)N1CCC(Oc2ccncc2)CC1 | 104 | 141 | 626

Row | Compound | CC50 [1] [nM] | EC50 (Plasmodium falciparum [2]) [nM] | EC50 (Plasmodium falciparum [3]) [nM]
18 | Cc1ccnc(NC(c2cccc(Cl)c2Cl)c2ccc3cccnc3c2O)c1 (configuration not stated) | > 49000 | 144 | 152
19 | N=c1c2c(n(CCc3ccccc3)c3c1CCC3)CCCC2 | 15300 | 234 | 58.7
20 | OC(CNc1cccc2ccccc12)Cn1c2ccccc2c2ccccc21 (configuration not stated) | 14900 | 883 | 2590
21 | CCC(C)(O)C(=O)O[C@H]1C(=O)OC2CC3C(C)=C[C@H](O)[C@@H](O)[C@]3(C)C3C24CO[C@]3(O)[C@H](O)[C@H](C)C14 (some centres not stated) | > 6250 | 215 | 227
22 | COc1ccccc1N1CCN(c2ccc(NC(=O)c3cccc(F)c3)cc2C(=O)N2CCCC2)CC1 | > 100000 | 6350 | > 12500
23 | C=CCn1c(COc2ccccc2C)nnc1SCC(=O)O | > 100000 | 1050 | > 12500
24 | COc1cc(C(=O)Nc2c3c(nn2-c2cc(C)cc(C)c2)CSC3)cc(OC)c1OC | > 1070 | 341 | 907
25 | O=c1nc(/C=C/c2ccc(Cl)cc2)oc2ccccc12 | > 10000 | > 1660 | 1850
26 | Cc1ccc(-c2nnc(SCCCC(=O)NC(Cc3ccccc3)c3ccccc3)n2-c2cccc(Cl)c2)cc1 (configuration not stated) | > 27600 | 621 | > 12500
27 | CCCOC(=O)C1=C(C)NC2=C(C(=O)CC(c3ccc(OC)c(OC)c3)C2)C1c1cccc(Cl)c1Cl (configuration not stated) | > 100000 | 11.9 | 48.4
28 | COc1ccc(/C=C2\SC(=Nc3ccc(F)cc3)NC2=O)c(OC)c1 | > 10000 | 543 | 270
29 | Cc1ccc(N2C(N)=NC(N)=NC2(C)C)c(C)c1 | > 100000 | > 12500 | 105
30 | Fc1ccc(Nc2nc(OC(C(F)(F)F)C(F)(F)F)nc(OC(C(F)(F)F)C(F)(F)F)n2)cc1 | > 10000 | 1570 | > 1340
31 | COc1ccc2nc(C)cc(Nc3ccc(Cl)cc3)c2c1 | 18300 | 2680 | 1230
32 | Cc1cc(C)c(CSC(=N)N)c(C)c1CSC(=N)N | > 10000 | > 1140 | 1120
33 | COc1ccc(Nc2nc(-c3cc4cc(OC)ccc4oc3=O)cs2)c(OC)c1 | > 100000 | > 7470 | > 12500
34 | O=c1sc(=NCC(O)c2ccc(Cl)c(Cl)c2)[nH]c2ccccc12 (configuration not stated) | > 10000 | 73.1 | 757
